According to patent US7598234B2, “Steroid derived antibiotics” (Brigham Young University, priority 1998, dated 2009):
≈ marks a conversion by molar mass, not a printed value.

Columns and labels:
E. coli (ATCC 10798) [1] = test: MIC and MBC measurement with E. coli (ATCC 10798); format: cell-based, Escherichia coli; settings: Table 1, E. coli (ATCC 10798)
Summary of the method: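 Tube dilution in tryptic soy broth: compound (HCl salt in water) at graded concentrations, stationary incubation at 37° C. for 24 hours, growth read as absorbance at 760 nm. Non-turbid tubes were subcultured on TSA and CFU/mL compared with the original inoculum to define killing.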

E. coli (ATCC 10798) [2] = test: Sensitization to erythromycin (concentration lowering the MIC of erythromycin), E. coli (ATCC 10798); format: cell-based, Escherichia coli; settings: Table 2, E. coli (ATCC 10798)
Gram-negative bacteria [3] = test: MIC of ester and amide side chain compounds (Table 14); format: cell-based; settings: strain not given
Method: (§1) Aliquots of 1 mL of the suspension were added to test tubes containing 1 mL TSB and incrementally varied concentrations of cholic acid derivatives and/or erythromycin or novobiocin. In the sensitization experiments, erythromycin or novobiocin were added 15 minutes later than the cholic acid derivatives. The samples were subjected to stationary incubation at 37° C. for 24 hours. Sample turbidity was determined by measuring absorption at 760 nm (HP 8453 UV-Visible Chemstation, Hewlett Packard). Additionally, an alliquot from each of the samples showing no measurable turbidity was subcultured on TSA plates (alliquots were diluted to provide fewer than 300 CFU). Colonies that grew on the subculture after overnight incubation were counted and the number of CFU/mL in the samples were calculated. The calculated values were compared to the number of CFU/mL in the original inoculum.
(§2) Ester and amide side chains: Additional compounds, for example, compounds with amide and ester side chains, were tested.

Gram-negative bacteria [4] = test: Sensitization to erythromycin, ester and amide side chain compounds (Table 14); format: cell-based; settings: Table 14; strain not given
Method: as §1
(§3) Ability to permeabilize outer membrane: Compounds 11, 106, and 108-114 (FIG. 1) were tested for antibiotic activity. They were also tested for the ability to permeabilize the outer membrane of Gram-negative bacteria, causing sensitization to hydrophobic antibiotics that cannot cross the outer membrane. The permeabilization of the outer membrane was measured using erythromycin and novobiocin.
as §2

Gram-negative bacteria [5] = test: Sensitization to novobiocin, ester and amide side chain compounds (Table 14); format: cell-based; settings: strain not given
Method: as §1, §3, §2

E. coli (ATCC 25922) [6] = test: MIC and MBC measurement with E. coli (ATCC 25922); format: cell-based, Escherichia coli; settings: ATCC25922; Table 10; Escherichia coli ATCC 25922; read-out: MBC
Summary of the method: (§4)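 Bacteria incubated statically 24 h at 37 °C in TSB with graded compound concentrations (erythromycin or novobiocin added 15 min later in sensitization runs). MIC from turbidity at 760 nm; MBC by subculturing clear samples on TSA and comparing CFU/mL to inoculum.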

E. coli (ATCC 25922) [7] = test: Sensitization to erythromycin, E. coli (ATCC 25922); format: cell-based, Escherichia coli; settings: Table 11; Escherichia coli ATCC 25922; erythromycin (by order) at 0.5, 1.0 or 3.0 μg/mL
Method: FICs can be performed by checkerboard titrations of compounds in one dimension of a microtiter plate, and of antibiotics in the other dimension, for example. The FIC is calculated by looking at the impact of one antibiotic on the MIC of the other and vice versa. […] Preferably, an FIC of less than 0.5 is obtained for synergism. As used herein, FIC can be determined as follows:
as §1
Concentrations of 0.5, 1.0 or 3.0 μg/mL of these antibiotics were used, and the concentrations of the cholic acid derivatives required to inhibit bacterial growth of Gram-negative strains were determined.
(§5) Minimum inhibition concentrations (MIC) and minimum hemolytic concentrations (MHC) were measured as described in Li et al., Antimicrob. Agents. Chemother., 1999, 43, 1347.

[8] = test system: Pseudomonas aeruginosa (ATCC 27853); test: Sensitization to erythromycin, Pseudomonas aeruginosa (ATCC 27853); format: cell-based
Summary of the method: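 Tube checkerboard in TSB: cholic acid derivatives added, then erythromycin or novobiocin 15 min later, antibiotics at 0.5, 1.0 or 3.0 μg/mL; stationary 37 °C, 24 h. Turbidity read at 760 nm; clear samples subcultured on TSA for CFU counts versus inoculum; FIC derived for synergy.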

[9] = test system: Pseudomonas aeruginosa (ATCC 27853); test: Sensitization to novobiocin, Pseudomonas aeruginosa (ATCC 27853); format: cell-based; settings: Table 12; Pseudomonas aeruginosa ATCC 27853; novobiocin (by order) at 0.5, 1.0 or 3.0 μg/mL
Method: (§6) Alternatively, “fractional inhibitory concentration (FIC)” is also useful for determination of synergy between the compounds of the invention, or the compounds in combination with known antibiotics. FICs can be performed by checkerboard titrations of compounds in one dimension of a microtiter plate, and of antibiotics in the other dimension, for example. The FIC is calculated by looking at the impact of one antibiotic on the MIC of the other and vice versa. […] Preferably, an FIC of less than 0.5 is obtained for synergism. As used herein, FIC can be determined as follows:
as §1, with “inoculum. […]” for “inoculum.”
(§7) To measure permeabilization, the FIC values for compounds 1, 2, 5, 106, 10, 112, 133, and 134 with erythromycin, novobiocin, and rifampicin were determined. Concentrations of 0.5, 1.0 or 3.0 μg/mL of these antibiotics were used, and the concentrations of the cholic acid derivatives required to inhibit bacterial growth of Gram-negative strains were determined.

[10] = test system: Klebsiella pneumonia ATCC 13883; test: MIC and MBC measurement with Klebsiella pneumoniae ATCC 13883; format: cell-based; settings: Klebsiella pneumoniae, ATCC13883, Table 10, read-out: MBC
Text: (§8) General: Microorganisms. Reference strains were purchased from the American Type Culture Collection (Rockville, Md.) or Bactrol disks from Difeo Laboratories (Detroit, Mich.). The following specific ATCC strains were used: 10798 Escherichia coli, 25922 Escherichia coli, 13883 Klebsiella pneumoniae, 27853 Pseudomonas aeruginosa, 14028 Salmonella typhimurium, 29212 Enterococcus faecalis, 25923 Staphylococcus aureus, 19615 Streptococcus pyogenes, and 90028 Candida albicans. Bacterial strains were maintained on Mueller-Hinton agar plates, and Candida albicans was maintained on Sabouraud Dextrose agar plates.
(§9) Tryptic soy broth (TSB) was made by dissolving 27.5 grams of tryptic soy broth without dextrose (DIFCO Laboratories) in 1 liter of deionized water and sterilizing at 121° C. for 15 minutes. Solid agar (TSA) plates were made by dissolving 6.4 grams of tryptic soy broth and 12 grams of agar (purified grade, Fischer Scientific) in 800 mL of deionized water and sterilizing at 121° C. for 20 minutes. Aliquots (20 mL) of the homogeneous solution were then poured in sterile plastic petri dishes (100×15 mm, Fisher Scientific). Solutions of compounds were made by dissolving the HCl salt of the respective compound into an appropriate amount of deionized and sterilized water followed by microfiltration.
as §1

[11] = test system: Salmonella typhimurium ATCC 14028; test: MIC and MBC measurement with Salmonella typhimurium ATCC 14028; format: cell-based; settings: Salmonella enterica, Table 10, read-out: MBC
Text: as §8, §9, §1

[12] = test system: Staphylococcus aureus ATCC 25923; test: MIC and MBC measurement with Staphylococcus aureus ATCC 25923; format: cell-based; settings: ATCC25923; Table 10; Staphylococcus aureus ATCC 25923; read-out: MIC
Summary of the method: as §4

[13] = remark: listed apart in the source
Method: as §5

[14] = test system: Klebsiella pneumonia ATCC 13883; test: Growth inhibition and FIC with novobiocin, Klebsiella pneumoniae ATCC 13883; format: cell-based; settings: Table 12, novobiocin (by order) at 0.5, 1.0 or 3.0 μg/mL
Method: as §6, §1, §7

[15] = test system: Salmonella typhimurium ATCC 14028; test: Growth inhibition and FIC with novobiocin, Salmonella typhimurium ATCC 14028; format: cell-based; settings: Table 12, novobiocin (by order) at 0.5, 1.0 or 3.0 μg/mL
Method: as §6, §1, §7

[16] = test system: Escherichia coli ATCC 25922; test: Growth inhibition and FIC with rifampicin, Escherichia coli ATCC 25922; format: cell-based; settings: Table 13, rifampicin (by order) at 0.5, 1.0 or 3.0 μg/mL
Method: as §6, §1, §7

[17] = test system: Klebsiella pneumonia ATCC 13883; test: Growth inhibition and FIC with rifampicin, Klebsiella pneumoniae ATCC 13883; format: cell-based
Method: as §6, §1, §7

[18] = test system: Pseudomonas aeruginosa ATCC 27853; test: Growth inhibition and FIC with rifampicin, Pseudomonas aeruginosa ATCC 27853; format: cell-based; settings: Table 13; Pseudomonas aeruginosa ATCC 27853^b; rifampicin (by order) at 0.5, 1.0 or 3.0 μg/mL
Method: as §6, §1, §7

[19] = test system: Salmonella typhimurium ATCC 14028; test: Growth inhibition and FIC with rifampicin, Salmonella typhimurium ATCC 14028; format: cell-based; settings: Table 13; Salmonella typhimurium ATCC 14028^b; rifampicin (by order) at 0.5, 1.0 or 3.0 μg/mL
Method: as §6, §1, §7

C[C@H](CCCO)C1CC[C@H]2[C@@H]3[C@H](N)C[C@@H]4C[C@H](N)CC[C@]4(C)[C@H]3C[C@H](N)[C@]12C (stereo partly shown)
melting point: 200 to 202 °C

C[C@H](CCCN(C)Cc1ccccc1)[C@H]1CC[C@H]2[C@@H]3[C@H](OC(=O)CCN)C[C@@H]4C[C@H](OC(=O)CCN)CC[C@]4(C)[C@H]3C[C@H](OC(=O)CCN)[C@]12C.Cl.Cl.Cl.Cl [Compound 7]
MIC (E. coli (ATCC 10798) [1]): 28 µg/mL
MIC: concentration required to lower the MIC of erythromycin from 70 μg/mL to 1 μg/mL (E. coli (ATCC 10798) [2]): 2.5 µg/mL
MIC (Gram-negative bacteria [3]): 70 µg/mL
a: concentration of cholic acid derivatives required to lower MIC of erythromycin to 1 μg/ML (Gram-negative bacteria [4]): 3 µg/mL
b: concentration of cholic acid derivatives required to lower MIC of novobiocin to 1 μg/ML (Gram-negative bacteria [5]): 13 µg/mL

C[C@H](CCCO)[C@H]1CC[C@H]2[C@@H]3[C@H](OCCCN)C[C@@H]4C[C@H](OCCCN)CC[C@]4(C)[C@H]3C[C@H](OCCCN)[C@]12C [Compound 10]
MBC (E. coli (ATCC 10798) [1]; Escherichia coli, ATCC10798, read-out: MBC): 60 µg/mL (≈ 106 µM)
MIC: concentration required to lower the MIC of erythromycin from 70 μg/mL to 1 μg/mL (E. coli (ATCC 10798) [2]): 2 µg/mL
MBC (with erythromycin) (E. coli (ATCC 10798) [2]; erythromycin sensitization): 50 µg/mL
MBC (E. coli (ATCC 25922) [6]): 40 µg/mL (≈ 70.7 µM)
concentration required to inhibit bacterial growth with antibiotic (E. coli (ATCC 25922) [7]): 1.5 µg/mL
MIC: concentration required to lower the MIC of erythromycin from 240 μg/mL to 5 μg/mL ([8]; Table 7, P. aureginosa (ATCC 27853)): 7 µg/mL
concentration required to inhibit bacterial growth with antibiotic ([8]; Table 11, Pseudomonas aeruginosa ATCC 27853, erythromycin (by order) at 0.5, 1.0 or 3.0 μg/mL): 2.1 µg/mL
concentration required to inhibit bacterial growth with antibiotic [9]: 5.3 µg/mL
MBC [10]: 50 µg/mL (≈ 88.4 µM)
MBC [11]: > 17 µg/mL
MIC [12]: 2 µg/mL (≈ 3.53 µM)
MHC [13]: 100 µg/mL
concentration required to inhibit bacterial growth with antibiotic [14]: 0.73 µg/mL
concentration required to inhibit bacterial growth with antibiotic [15]: 1.8 µg/mL
concentration required to inhibit bacterial growth with antibiotic [16]: 0.70 µg/mL
FIC ([17]; Table 13, rifampicin (by order)): 0.030
concentration required to inhibit bacterial growth with antibiotic ([17]; Table 13, rifampicin (by order) at 0.5, 1.0 or 3.0 μg/mL): 0.16 µg/mL
concentration required to inhibit bacterial growth with antibiotic [18]: 0.84 µg/mL
concentration required to inhibit bacterial growth with antibiotic [19]: 0.55 µg/mL
